Experimental data: the supplement of paper PMC10627819

Assays:
S. pneumoniae D39V [1] = experiment: fitness (endpoint OD595 vs no drug) (fraction); higher = more growth
In short: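 In 384-well plates at 37 °C, cultures began at OD595 0.01 in 30 µl, with 55 µl used for S. pneumoniae. OD595 readings every 30 min for 14 h were corrected by the first reading. Fitness divides the stationary-phase transition optical density by the robust mean of no-drug control wells. The result is capped at 1.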

S. pneumoniae D39V [2] = experiment: Bliss interaction score (quartile over a dose matrix) (fitness difference); higher = more antagonism (negative = synergy)
In short: (§1)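 The Bliss score is observed minus expected fitness under the product model, reported as quartiles over technical, biological and donor/recipient replicates. Fitness is the OD595 at entry into stationary phase divided by the plate's robust no-drug mean and capped at 1. Single-drug fitness was inferred from combination data.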

B. subtilis 168 = experiment: as above
In short: as §1

S. aureus DSM 20231 = experiment: as above
In short: as §1

S. aureus Newman = experiment: as above
In short: as §1
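Throughout, for Bliss interaction score (quartile over a dose matrix): first quartile when negative (synergy) and third quartile when positive (antagonism).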

O=C(O)c1cn(C2CC2)c2cc(N3CCNCC3)c(F)cc2c1=O [Ciprofloxacin] + Clc1ccc(COC(Cn2ccnc2)c2ccc(Cl)cc2Cl)c(Cl)c1 [Miconazole]
fitness, S. pneumoniae D39V [1]
Conditions | partner 1.073 µg/mL | partner 1.25 µg/mL | partner 2.145 µg/mL | partner 2.5 µg/mL | partner 4.29 µg/mL | partner 5 µg/mL
first compound 0.125 µg/mL | 0.987 | 0.939 | 0.966 | 0.925 | 0.926 | 0.908
first compound 0.25 µg/mL | 0.964 | – | 0.965 | – | 0.864 | –
first compound 0.5 µg/mL | 0.761 | 0.679 | 0.76 | – | 0.821 | 0.646

S. pneumoniae D39V [1], first compound 0.25 µg/mL, one replicate
Conditions | fitness
partner 1.25 µg/mL | 0.821
partner 2.5 µg/mL | 0.697
partner 5 µg/mL | 0.721

Conditions | Bliss interaction score
B. subtilis 168 | -0.0762
S. aureus DSM 20231 | 0.0295
S. aureus Newman | 0.0815
S. pneumoniae D39V [2] | 0.0741

O=C(O)c1cn(C2CC2)c2cc(N3CCNCC3)c(F)cc2c1=O [Ciprofloxacin] + O=C1CN(/N=C/c2ccc([N+](=O)[O-])o2)C(=O)N1 [Nitrofurantoin]
fitness, S. pneumoniae D39V [1]
Conditions | partner 1.285 µg/mL | partner 2 µg/mL | partner 2.57 µg/mL | partner 4 µg/mL | partner 8 µg/mL
first compound 0.125 µg/mL | 0.921 | 0.914 | 0.932 | 0.906 | 0.692
first compound 0.25 µg/mL | 0.895 | – | 0.903 | – | –
first compound 0.5 µg/mL | 0.704 | – | 0.72 | – | 0.437

fitness, S. pneumoniae D39V [1], one replicate
Conditions | partner 2 µg/mL | partner 4 µg/mL | partner 5.14 µg/mL | partner 8 µg/mL
first compound 0.125 µg/mL | – | – | 0.877 | –
first compound 0.25 µg/mL | 0.731 | 0.679 | 0.879 | 0.56
first compound 0.5 µg/mL | – | – | 0.627 | –

Conditions | Bliss interaction score
B. subtilis 168 | 0.129
S. aureus DSM 20231 | 0.0292
S. aureus Newman | -0.0569
S. pneumoniae D39V [2] | 0.106

COc1cccc2c1C(=O)c1c(O)c3c(c(O)c1C2=O)C[C@@](O)(C(=O)CO)C[C@@H]3O[C@H]1C[C@H](N)[C@H](O)[C@H](C)O1 [Doxorubicin] + CO[C@H]1/C=C/O[C@@]2(C)Oc3c(C)c(O)c4c(O)c(c(/C=N/N5CCN(C)CC5)c(O)c4c3C2=O)NC(=O)/C(C)=C\C=C\[C@H](C)[C@H](O)[C@@H](C)[C@@H](O)[C@@H](C)[C@H](OC(C)=O)[C@@H]1C [Rifampicin]
fitness, S. pneumoniae D39V [1]
Conditions | first compound 0.25 µg/mL | first compound 0.5 µg/mL | first compound 1 µg/mL
partner 0.025 µg/mL | 0.985 | 0.991 | 0.866
partner 0.05 µg/mL | – | 0.94 | –
partner 0.1 µg/mL | 0.323 | 0.397 | 0.318

S. pneumoniae D39V [1], partner 0.2 µg/mL, one replicate
Conditions | fitness
first compound 0.25 µg/mL | 0
first compound 0.5 µg/mL | 0
first compound 1 µg/mL | 0

Conditions | Bliss interaction score
B. subtilis 168 | 0.0845
S. aureus DSM 20231 | -0.0908
S. aureus Newman | -0.029
S. pneumoniae D39V [2] | -0.058

COc1cccc2c1C(=O)c1c(O)c3c(c(O)c1C2=O)C[C@@](O)(C(=O)CO)C[C@@H]3O[C@H]1C[C@H](N)[C@H](O)[C@H](C)O1 [Doxorubicin] + C[C@@H](O)[C@H]1C(=O)N2C(C(=O)O)=C(SCCNC=N)C[C@H]12 [Imipenem]
fitness, S. pneumoniae D39V [1]
Conditions | partner 0.005 µg/mL | partner 0.0065 µg/mL | partner 0.01 µg/mL | partner 0.013 µg/mL | partner 0.02 µg/mL | partner 0.026 µg/mL
first compound 0.25 µg/mL | 0.954 | 0.913 | 0.958 | 0.836 | 0.949 | 0.831
first compound 0.5 µg/mL | 0.981 | 0.858 | 0.958 | 0.844 | 0.971 | 0.842
first compound 1 µg/mL | 0.909 | 0.858 | 0.877 | 0.894 | 0.872 | 0.789

Conditions | Bliss interaction score
B. subtilis 168 | -0.197
S. aureus DSM 20231 | -0.0485
S. aureus Newman | -0.0256
S. pneumoniae D39V [2] | 0.0651

COc1cccc2c1C(=O)c1c(O)c3c(c(O)c1C2=O)C[C@@](O)(C(=O)CO)C[C@@H]3O[C@H]1C[C@H](N)[C@H](O)[C@H](C)O1 [Doxorubicin] + Clc1ccc(COC(Cn2ccnc2)c2ccc(Cl)cc2Cl)c(Cl)c1 [Miconazole]
fitness, S. pneumoniae D39V [1]
Conditions | partner 1.073 µg/mL | partner 1.25 µg/mL | partner 2.145 µg/mL | partner 2.5 µg/mL | partner 4.29 µg/mL | partner 5 µg/mL
first compound 0.25 µg/mL | 0.953 | 0.921 | 0.921 | 0.949 | 0.646 | 0.947
first compound 0.5 µg/mL | 0.967 | 0.967 | 0.978 | 0.966 | 0.848 | 0.983
first compound 1 µg/mL | 0.961 | 0.845 | 0.914 | 0.901 | 0.791 | 0.921

Conditions | Bliss interaction score
B. subtilis 168 | 0.0755
S. aureus DSM 20231 | -0.0766
S. aureus Newman | -0.074
S. pneumoniae D39V [2] | 0.0804

CC1(C)S[C@@H]2[C@H](NC(=O)Cc3ccccc3)C(=O)N2[C@H]1C(=O)O [PenicillinG] + CO[C@H]1/C=C/O[C@@]2(C)Oc3c(C)c(O)c4c(O)c(c(/C=N/N5CCN(C)CC5)c(O)c4c3C2=O)NC(=O)/C(C)=C\C=C\[C@H](C)[C@H](O)[C@@H](C)[C@@H](O)[C@@H](C)[C@H](OC(C)=O)[C@@H]1C [Rifampicin]
Conditions | Bliss interaction score
B. subtilis 168 | 0.0761
S. aureus DSM 20231 | 0.036
S. aureus Newman | 0.0252
S. pneumoniae D39V [2] | -0.112

CC1(C)S[C@@H]2[C@H](NC(=O)Cc3ccccc3)C(=O)N2[C@H]1C(=O)O [PenicillinG] + COc1cc(Cc2cnc(N)nc2N)cc(OC)c1OC [Trimethoprim]
Conditions | Bliss interaction score
B. subtilis 168 | -0.131
S. aureus DSM 20231 | -0.0299
S. aureus Newman | -0.0822
S. pneumoniae D39V [2] | 0.101

CC1(C)S[C@@H]2[C@H](NC(=O)Cc3ccccc3)C(=O)N2[C@H]1C(=O)O [PenicillinG] + COc1ccc(C[C@H](N)C(=O)N[C@H]2[C@@H](O)[C@H](n3cnc4c(N(C)C)ncnc43)O[C@@H]2CO)cc1 [Puromycin]
Conditions | Bliss interaction score
B. subtilis 168 | 0.0536
S. aureus DSM 20231 | -0.0369
S. aureus Newman | 0.0759
S. pneumoniae D39V [2] | 0.0834

CC1(C)S[C@@H]2[C@H](NC(=O)Cc3ccccc3)C(=O)N2[C@H]1C(=O)O [PenicillinG] + Cc1cc(NS(=O)(=O)c2ccc(N)cc2)no1 [Sulfamethoxazol]
Conditions | Bliss interaction score
B. subtilis 168 | 0.0445
S. aureus DSM 20231 | -0.0626
S. aureus Newman | 0.0475
S. pneumoniae D39V [2] | -0.0954

CC1(C)S[C@@H]2[C@H](NC(=O)Cc3ccccc3)C(=O)N2[C@H]1C(=O)O [PenicillinG] + Cn1nnc(-c2ccc(-c3ccc(N4C[C@H](CO)OC4=O)cc3F)cn2)n1 [Tedizolid]
Conditions | Bliss interaction score
B. subtilis 168 | 0.0625
S. aureus DSM 20231 | 0.057
S. aureus Newman | -0.0888
S. pneumoniae D39V [2] | 0.106

CC1(C)S[C@@H]2[C@H](NC(=O)Cc3ccccc3)C(=O)N2[C@H]1C(=O)O [PenicillinG] + Oc1cc(Cl)ccc1Oc1ccc(Cl)cc1Cl [Triclosan]
Conditions | Bliss interaction score
B. subtilis 168 | 0.0307
S. aureus DSM 20231 | 0.0254
S. aureus Newman | 0.0326
S. pneumoniae D39V [2] | 0.0767

COc1ccc(C[C@H](N)C(=O)N[C@H]2[C@@H](O)[C@H](n3cnc4c(N(C)C)ncnc43)O[C@@H]2CO)cc1 [Puromycin] + CC[C@H]1OC(=O)[C@H](C)C(=O)[C@H](C)[C@@H](O[C@@H]2O[C@H](C)C[C@H](N(C)C)[C@H]2O)[C@](C)(OC)C[C@@H](C)C(=O)[C@H](C)[C@H]2N(CCCCn3cnc(-c4cccnc4)c3)C(=O)O[C@]12C [Telithromycin]
Conditions | Bliss interaction score
B. subtilis 168 | 0.0276
S. aureus DSM 20231 | 0.045
S. aureus Newman | -0.0571
S. pneumoniae D39V [2] | -0.0651

COc1ccc(C[C@H](N)C(=O)N[C@H]2[C@@H](O)[C@H](n3cnc4c(N(C)C)ncnc43)O[C@@H]2CO)cc1 [Puromycin] + Oc1cc(Cl)ccc1Oc1ccc(Cl)cc1Cl [Triclosan]
Conditions | Bliss interaction score
B. subtilis 168 | 0.0476
S. aureus DSM 20231 | 0.0973
S. aureus Newman | 0.0281
S. pneumoniae D39V [2] | 0.102

CN(C)c1cc(NC(=O)CNC(C)(C)C)c(O)c2c1C[C@H]1C[C@H]3[C@H](N(C)C)C(O)=C(C(N)=O)C(=O)[C@@]3(O)C(O)=C1C2=O [Tigecycline] + Oc1cc(Cl)ccc1Oc1ccc(Cl)cc1Cl [Triclosan]
Conditions | Bliss interaction score
B. subtilis 168 | 0.0719
S. aureus DSM 20231 | 0.101
S. aureus Newman | 0.0252
S. pneumoniae D39V [2] | 0.0471
